In one data set the test system is skin wounds. Conditions: cited from earlier work.
Data set [1] concerns corneal scarring after anterior lamellar keratectomy. Description: Rat model of corneal injury (anterior lamellar keratectomy). The data set is classed as in vivo. The conditions noted are these: ALK cut depth around 50%, 10 μg/mL in Provisc gel subconjunctivally on Day 0, read at day 3, versus untreated eyes. The procedure: FIG. 6. Efficacy of verteporfin in reducing corneal scarring. Anterior lamellar keratectomy (ALK) with a cut depth of around 50% was performed in a rat model of corneal injury. 10 μg/mL verteporfin (in Provisc gel) was subconjunctivally injected after ALK on Day 0.
Anterior lamellar keratectomy (ALK) with a cut depth of around 50% was performed in a rat model of corneal injury. 10 μg/mL verteporfin (in Provisc gel) was subconjunctivally injected after ALK on Day 0.

For data set [2], the system named is bleb survival after glaucoma filtration surgery. Briefly: Rabbit model of glaucoma filtration surgery. The conditions noted are these: subconjunctival injection into the bleb after surgery, various concentrations, versus BSS control eye. The class given is in vivo, New Zealand White rabbits. The procedure:
FIGS. 5A-5B. Efficacy of verteporfin in reducing scarring and increasing bleb survival. The efficacy of verteporfin in reducing scarring and increasing bleb survival was evaluated in a rabbit model of glaucoma filtration surgery. Glaucoma filtration surgery was performed in both eyes of New Zealand White rabbits. In one eye, various concentrations of verteporfin or Mitomycin C was injected subconjunctivally into the bleb after surgery. In the contralateral eye, BSS was injected after surgery as a control. Bleb appearance and survival were evaluated postoperatively at least twice a week. Bleb survival was the primary endpoint. […] There were no post-surgical complications in all groups, including corneal edema, bleb leak, anterior chamber inflammation, iris involvement, cataract or infection (FIG. 5B).
The efficacy of verteporfin in reducing scarring and increasing bleb survival was evaluated in a rabbit model of glaucoma filtration surgery. Glaucoma filtration surgery was performed in both eyes of New Zealand White rabbits. In one eye, various concentrations of verteporfin or Mitomycin C was injected subconjunctivally into the bleb after surgery. In the contralateral eye, BSS was injected after surgery as a control. Bleb appearance and survival were evaluated postoperatively at least twice a week. Bleb survival was the primary endpoint.

The subject of data set [3] is ki67 (Mki67) expression in hMSCs. Briefly: qPCR of ki67 expression in hMSCs. The conditions noted are these: Verteporfin 1 μg/mL and 10 μg/mL, 24 hours. The class given is cell-based, human. The procedure: FIG. 3. […] The hMSCs were cultured on plates. The next day, the treatments were added in duplicate: Verteporfin 1 μg/mL, Verteporfin 10 μg/mL, DMSO, and cells without treatment. After 24 hours, the medium was removed, the wells were washed with PBS and then the RNA of the cells were extracted using Trizol and Quiagen kit. qPCR was performed.
The hMSCs were cultured on plates. The next day, the treatments were added in duplicate: Verteporfin 1 μg/mL, Verteporfin 10 μg/mL, DMSO, and cells without treatment. After 24 hours, the medium was removed, the wells were washed with PBS and then the RNA of the cells were extracted using Trizol and Quiagen kit. qPCR was performed.
A general note: In qPCR the cycle at which signal appears reflects the starting amount.

Data set [4] concerns alpha smooth muscle actin (ASMA) in hMSCs. Briefly: Immunostaining of alpha smooth muscle actin in hMSCs. The data set is classed as cell-based, human. The conditions noted are these: 10 ng/ml TGFB-1 with or without verteporfin, 24 hours. As to the method:
FIG. 2. Results of immunostaining alpha smooth muscle actin in hMSCs. The hMSCs, were treated with 10 ng/ml TGFB-1 with or without verteporfin and DMSO for 24 hours. The next day, the cells were fixed and stained for alpha smooth muscle actin (ASMA).
The hMSCs, treated with 10 ng/ml TGFB-1 with or without verteporfin and DMSO for 24 hours, were fixed and stained for alpha smooth muscle actin (ASMA) the next day.

The test system of data set [5] is α-smooth muscle actin (α-SMA, ACTA-2) expression in hMSCs. Briefly: qPCR of α-smooth muscle actin expression in TGFB-1 treated hMSCs. The class given is cell-based, human. The procedure: FIG. 1. Verteporfin reduces expression of α-smooth muscle actin in hMSCs. Human mesenchymal stem cells (hMSCs) were plated in culture. The next day, the following treatments were added in duplicate: 1 μg/mL Verteporfin, 10 μg/mL Verteporfin, 10 ng/ml transforming growth factor beta-1 (TGFB-1), 1 μg/mL Verteporfin+10 ng/mL TGFB-1, 10 μg/mL Verteporfin+10 ng/ml TGFB-1, Dimethyl sulfoxide (DMSO), and cells without treatment. After 24 hours, the medium was removed, the wells were washed with PBS and then the RNA of the cells were extracted using Trizol and a Quiagen kit. Quantitative polymerase chain reaction (qPCR) was performed. TGFB-1 activation leads to the differentiation of mesenchymal stem cells into myofibroblasts, inducing expression of α-smooth muscle actin (α-SMA) and the extracellular matrix proteins such as collagen which may lead to scarring.
Human mesenchymal stem cells (hMSCs) were plated in culture. The next day, the following treatments were added in duplicate: 1 μg/mL Verteporfin, 10 μg/mL Verteporfin, 10 ng/ml transforming growth factor beta-1 (TGFB-1), 1 μg/mL Verteporfin+10 ng/ml TGFB-1, 10 μg/mL Verteporfin+10 ng/ml TGFB-1, Dimethyl sulfoxide (DMSO), and cells without treatment. […] Quantitative polymerase chain reaction (qPCR) was performed.

The test system of a further data set is hMSCs. Description: Live/dead cytotoxicity test in hMSCs. Conditions: 1 μg/mL and 10 μg/mL, 24 hours. The class given is cell-based, human. As to the method: FIG. 4. Verteporfin is not cytotoxic to hMSCs. The hMSCs were treated with verteporfin at concentrations of 1 μg/mL and 10 μg/mL for 24 hours. Cells were treated with 10% DMSO for 40 minutes. The next day, the live/dead solution was added to the cells.
The hMSCs were treated with verteporfin at concentrations of 1 μg/mL and 10 μg/mL for 24 hours. Cells were treated with 10% DMSO for 40 minutes. The next day, the live/dead solution was added to the cells.

For the substance Verteporfin, in the data set with skin wounds (mice, injection into skin wounds), the “scar formation in skin wounds” value is “prevented scar formation”. In the data set with skin wounds (previous animal studies), the “side effects on dosing in the skin” value is reported as “minimal side effects”. In addition, in data set [1], the corneal scarring entry was “reduced corneal scarring”. Further, the bleb survival result in data set [2] is “trend towards increased survival”. Further, the “expression of ki67 (Mki67), marker of cell proliferation (qPCR)” value in data set [3] is on record as “did not increase the expression of ki67”. In addition, the “expression of ASMA (immunostaining)” value in data set [4] was “reduces the expression of ASMA”. In data set [5] (10 ng/ml TGFB-1 + 1 or 10 μg/mL Verteporfin, 24 hours), the “expression of alpha-SMA (qPCR)” value was “statistically reduced the expression of alpha-SMA in a dose dependent manner”. For the same substance, the “cytotoxicity (live/dead)” value in the data set on hMSCs was “not cytotoxic”.

For the substance “transforming growth factor beta-1 [TGFB-1]”, the “expression of alpha-SMA (ACTA-2) (qPCR)” value in data set [5] (10 ng/ml TGFB-1 alone, after 24 hours) is on record as “statistically increased the expression of alpha-SMA”.

Values taken from US20240366565A1, “Use of Verteporfin to Modulate Wound Healing After an Ocular Surgical Procedure or Ocular Injury” (The Board of Trustees of the Leland Stanford Junior …, priority 2021, published 2024).
